Three compounds from patent publication US9879023B2, “Therapeutic compounds” (Gilead Sciences, Inc., priority 2011, dated 2018) can be followed below.

Where two headings read alike, the source gives them in different places.

This assay has as its system HIV-IIIb (MT-4 cells). The assay is described as follows: Test A: Antiviral Assays in MT4 Cells. Type of assay: cell-based. The conditions noted are these: MT-4 cells infected with HIV-IIIb (0.004 m.o.i.), 5 days incubation, CellTiter-Glo readout, read-out: EC50. How it is done: Test A: Antiviral Assays in MT4 Cells
For the antiviral assay utilizing MT-4 cells, 0.4 μL of […] test concentration of 3-fold serially diluted compound in DMSO was added to 40 μL of cell growth medium (RPMI 1640, 10% FBS, 1% penicilline/Streptomycine, 1% L-Glutamine, 1% HEPES) in each well of 384-well assay plates (10 concentrations) in quadruplicate.
1 mL aliquots of 2×10e6 MT-4 cells are pre-infected for 1 and 3 hrs respectively, @37° C. with 25 uL (MT4) or of either cell growth medium (mock-infected) or a fresh 1:250 dilution of an HIV-IIIb concentrated ABI stock (0.004 m.o.i. for MT4 cells). Infected and uninfected cells are diluted in cell growth medium and 35 uL of 2000 (for MT4) cells is added to each well of the assay plates.
Assay plates were then incubated in a 37° C. incubator. After 5 days of incubation, 25 μl of 2× concentrated CellTiter-Glo™ Reagent (catalog # G7573, Promega Biosciences, Inc., Madison, Wis.) was added to each well of the assay plate. Cell lysis was carried out by incubating at room temperature for 2-3 min and then chemiluminescence was read using the Envision reader (PerkinElmer). […]
Background: In ATP-based viability assays light output follows the ATP content of the culture.

The mark [1] stands for this setting: Human immunodeficiency virus 1, IIIB, MT4, 120 h.

Consider `Cc1cc2c(sc(=O)n2Cc2ccccc2)c(-c2ccc3c4c(ccnc24)CCO3)c1[C@H](OC(C)(C)C)C(=O)O` (atropisomer, axis not shown) [Compound 72, (S)-2-((S)-3-benzyl-7-(2,3-dihydropyrano[4,3,2-de]quinolin-7-yl)-5-methyl-2-oxo-2,3-dihydrobenzo[d]thiazol-6-yl)-2-tert-butoxyacetic acid], for which the concentration giving a half-maximal response (EC50) under setting [1] was 29.8 nM.
Take `Cc1cc2nc(C3CC3)sc2c(-c2ccc3c(c2Cl)NCCO3)c1[C@H](OC(C)(C)C)C(=O)O` (atropisomer, axis not shown) [Compound 86, (S)-2-tert-butoxy-2-((S)-7-(5-chloro-3,4-dihydro-2H-benzo[b][1,4]oxazin-6-yl)-2-cyclopropyl-5-methylbenzo[d]thiazol-6-yl)acetic acid]: the EC50 came out at 61.7 nM.
With `Cc1cc2nc(C3CC3)sc2c(-c2ccc3c4c(ccnc24)CCO3)c1[C@H](OC(C)(C)C)C(=O)O` [Compound 22, (S)-2-tert-butoxy-2-((R)-2-cyclopropyl-7-(2,3-dihydropyrano[4,3,2-de]quinolin-7-yl)-5-methylbenzo[d]thiazol-6-yl)acetic acid], the EC50 under setting [1] was found to be 170 nM.

As a reminder, the EC50 is the concentration needed to bring the measured effect to its halfway point.
